Ends that are not written are not given here.
Assays:
[1] = tested on: axotomized retinal ganglion cells (RGCs); experiment: Optic nerve transection (axotomy): RGC survival at 14 days; assay type: in vivo, rat
Description: Optic nerve transection was performed as previously described (Koeberle and Ball 1998; Koeberle and Bahr 2008; Koeberle, Wang et al. 2010; Magharious, D'Onofrio et al. 2011; Magharious, D'Onofrio et al. 2011; Monnier, D'Onofrio et al. 2011). Animals were placed in a stereotaxic frame and anesthetized with Isoflurane (2%; 0.8 L/min oxygen flow rate) delivered through a gas anesthesia mask. Lidocaine eye drops were used to anesthetize the cornea and ophthalmic eye ointment was applied to the cornea to prevent desiccation during surgery. […] In order to allow access to the optic nerve and surrounding dura mater sheath, the eye was rotated laterally by applying traction to the extraocular muscles. The dural sheath surrounding the optic nerve was cut longitudinally, to avoid damaging blood vessels supplying the retina. The optic nerve was gently lifted from the meningeal sheath and transected within 2 mm of the back of the eye. In order to retrogradely label RGCs, gelfoam soaked in 2% Fluorogold (Sigma) was placed over the transected optic nerve stump. The orbital contents were returned to their original location and the initial incision was closed. The optic nerve crush procedure was performed using a similar approach; however, the optic nerve was crushed using fine self-closing forceps for 6 seconds as previously described (Magharious, D'Onofrio et al. 2011; Monnier, D'Onofrio et al. 2011). The orbital contents were then similarly returned to their original location and the initial incision was closed. Following surgery, rats were placed in a recovery cage under a heat lamp and given Ketoprofen to ease post-surgical recovery.
The procedures for intraocular and optic nerve injections have been previously described (Koeberle and Ball 1998; Koeberle and Bahr 2008; Koeberle, Wang et al. 2010; Magharious, D'Onofrio et al. 2011; Magharious, D'Onofrio et al. 2011; Monnier, D'Onofrio et al. 2011). Animals received intraocular injections of each peptide at 3 and 8 days postaxotomy, prior to the onset of RGC apoptosis which occurs at 4-5 days after axotomy. Animals were placed in a stereotaxic frame and anesthetized with isoflurane, delivered through a gas anesthetic mask. The cornea was anesthetized using Alcaine eye drops (Alcon) prior to intraocular injections. A pulled glass micropipette attached to a 10 μl Hamilton syringe via a hydraulic coupling through PEEK tubing was used to deliver 4 μl of a peptide solution (10 mg/ml) into the vitreous chamber of the eye, posterior to the limbus. Care was taken to prevent damage to the lens or anterior structures of the eye. The pipette was held in place for 5 seconds after injection and slowly withdrawn from the eye to prevent reflux. Injections were performed using a surgical microscope in order to visualize pipette entry into the vitreous chamber and confirm delivery of the injected solution.
To directly target RGCs, peptide solutions were injected into the transected optic nerve stump using a 10 microliter Hamilton syringe. A total of 5 microliters of peptide suspension (10 mg/ml) were injected. The majority of the injected fluid will reflux out of the optic nerve during this procedure, so the remaining pool of peptide suspension is left in place when returning the orbital contents to their original positions.
For intraperitoneal injections, 1 ml of saline containing 0.5 mg of dissolved peptide was delivered via a 25 gauge needle attached to a 5 ml syringe, following rapid anesthesia with isoflurane to incapacitate the animal.
For eye drop application of C-terminal peptides, animals were sedated with isoflurane and placed in a stereotaxic frame, in order to reduce the blink reflex. Twenty-five microliters of a peptide suspension (1 mg/ml) was delivered to the surface of the cornea using a micropipetter with a sterile micropipette tip. Eye drops were delivered once per day, on day 1, 2, 3, 4, 5, 6, and day 7 after axotomy. […]

[2] = tested on: middle cerebral artery occlusion (MCAO) in adult rats; experiment: Thromboembolic middle cerebral artery occlusion (MCAO): brain infarct volume (TTC staining); assay type: in vivo, rat; conditions: Arginine 9-mer-conjugated peptides; intravenous (tail-vein) 1 mg/kg; 48 hours after MCAO; relative to control
Description: (§1) In order to examine the effects of the peptide therapeutics described herein, a thromboembolic model of middle cerebral artery occlusion that closely mimics human ischemic brain stroke was used: a clotted segment of blood is injected into the origin of the middle cerebral artery to block blood flow in the corresponding vascular territory of the lateral cerebrum (Wang, Yang et al. 2001).
(§2) Following deep isoflurane anesthesia via a nose-cone, fur was shaved from the ventral aspect of the neck. The shaved skin was cleaned twice with alternating applications of Proviodine (iodine detergent solution) and 70% ethanol. Following a final application of Proviodine, the surgical field was draped and a midline incision made in the ventral skin and fascia of the neck. Under an operating microscope, the right common carotid artery (CCA), the right external carotid artery […], and the right internal carotid artery […] were carefully isolated and separated from the adjacent vagus nerve. A 6-0 silk suture was loosely tied at the origin of the ECA, and another suture was used to ligate the ECA distally. A sterile modified PE 10 catheter was introduced into the lumen of the right ECA via a small puncture. Ten microliters of blood was withdrawn into the catheter and retained for 15 minutes to allow formation of a clot. The fresh autologous pre-formed clot was used for MCA occlusion. The right CCA and the right ICA were temporarily clamped using microvascular clips. The PE 50 catheter containing a 20 mm long fibrin rich clot was attached to 100 μl Hamilton syringe and introduced into the lumen of the external carotid artery via a small incision. The suture around the origin of the external carotid artery was tightened around the intraluminal catheter to prevent bleeding, and the microvascular clip on the internal carotid artery was removed. The catheter was gently advanced from the ECA into the lumen of the ICA and upwards to the origin of the middle cerebral artery (a total of 17 mm in distance from the bifurcation of the CCA). At this point, the end of the catheter is 1-2 mm away from the origin of the middle cerebral artery. Over 10 seconds, the clot (3.5 μl volume) was gently injected together with 5 μl of sterile saline within the catheter. The catheter was removed 5 minutes after injection, and the right ECA was ligated at its origin. […]
(§3) 48 hours after MCA occlusion isoflurane anesthetized rats were euthanized by decapitation. […] Infarct volumes were calculated from scanned images of the coronal surfaces of brain slices, using the following formula: Infarct volume=(volume of uninjured hemisphere−(volume of injured hemisphere−measured infarct volume))/volume of uninjured hemisphere)×100. […]

[3] = tested on: middle cerebral artery occlusion (MCAO) in adult rats; experiment: MCAO: neurological deficits (modified Bederson scoring system); assay type: in vivo, rat; conditions: Arginine 9-mer-conjugated peptides; intravenous 1 mg/kg; scored 8, 24 and 48 hours after MCAO; relative to control
Description: as §1
as §2, with “origin. Body temperature was maintained at 37° C. with a heating pad for the duration of surgery, after which the surgical field was closed with 4-0 silk sutures. Subcutaneous injections of Buprenorphine (0.05 mg/kg) were administered to minimize post-surgical discomfort.” for “origin.”
Neurological deficits were recorded at 8, 24 and 48 hours after ischemic injury. Neurological deficits were determined using a modified Bederson scoring system. […]

[4] = tested on: middle cerebral artery occlusion (MCAO) in adult rats; experiment: MCAO: brain edema of the injured hemisphere; assay type: in vivo, rat; conditions: Arginine 9-mer-conjugated peptides; intravenous 1 mg/kg; 48 hours after MCAO; relative to control
Description: as §1
Following deep isoflurane anesthesia via a nose-cone, fur was shaved from the ventral aspect of the neck. The shaved skin was cleaned twice with alternating applications of Proviodine (iodine detergent solution) and 70% ethanol. Following a final application of Proviodine, the surgical field was draped and a midline incision made in the ventral skin and fascia of the neck. Under an operating microscope, the right common carotid artery (CCA), the right external carotid artery […], and the right internal carotid artery […] were carefully isolated and separated from the adjacent vagus nerve. […]
as §3

[5] = tested on: retinal ganglion cells (RGCs); experiment: Retinal ischemia (ophthalmic artery ligation): RGC survival at 14 days; assay type: in vivo, rat; conditions: ophthalmic vessels ligated 45 minutes; intravenous 500 μg at 1 day and 8 days after injury; 14 days after stroke
Description: The approach for temporary retinal ischemia (ophthalmic artery ligation) was similar with a few exceptions. this procedure has been previously described (Tatton, Chalmers-Redman et al. 2001). Since the optic nerve was not damaged in this procedure, RGCs had to be retrogradely labeled prior to ischemia. […] Injections were performed under gas anesthetic in a stereotaxic apparatus. […] Injections were carried out using a 10 μl Hamilton syringe actuated by a computer controlled Picopump (World Precision Instruments). […] The needle was left in place for 10 min after each injection and slowly withdrawn to prevent reflux of the injected solutions up the needle tract. The surgical approach to the optic nerve was identical to that described for optic nerve transection. After a longitudinal cut was made in the meningeal sheath surrounding the optic nerve, the nerve was gently lifted out of the sheath. The meningeal sheath including the ophthalmic artery was then clamped using a calibrated micro-vessel clamp for 45 minutes, after which the clamp was removed to permit vascular reperfusion. […]
Eyes were enucleated, the cornea and lens were removed and the remaining eye cups containing the retinas were fixed in 4% paraformaldehyde at 14 days postaxotomy. […] RGC densities were grouped by retinal eccentricity (inner, middle, outer), and expressed as mean±SEM. […]

[6] = tested on: cultured post-natal cortical neurons; experiment: Cortical neuron survival after glutamate (crystal violet assay); assay type: cell-based, rat; conditions: 5 mM glutamate, 24 hours; increasing volumes of 10 mg/ml peptide stock; relative to control
Description: Cortical neuron cultures were made from newborn (P5) rat pups. Cortical samples were triturated 30× using a P1000 pipettor in cold Dubelcco's PBS+glucose. Neurons were plated in 24 well plates coated with poly-d-lysine. 100,000 cells/well were plated in cold Neurobasal A medium+glutamax+penicillin/streptomycin. Cultures were placed in an incubator (37 Celsius, 5% CO2) for 7 days, with half the media changed after 3 days.
After 7 days in culture, the media was replaced with fresh media containing 5 mM glutamate. Experimental samples received various amounts of each peptide, whereas controls received an equivalent volume of PBS (vehicle). After 24 hours, cell survival was quantified using the crystal violet assay: Media was removed from the cells and 200 microliters of 0.2% crystal violet (dissolved in 20% methanol:80% H2O) was added to each well. After 5 minutes, wells were rinsed with distilled water and the plates were dried. Crystal violet was eluted from the cells using 0.1 M sodium citrate in 50% ethanol. 100 microliter samples from each well were then transferred to 96 well plates and absorbance was read at 540 nm. Results were expressed as the relative fold-change in comparison to the control samples that received buffer.

[7] = Arginine 9-mer (R9)-conjugated peptides, eye drops (1 mg/ml, 25 microliters) once per day, days 1-7 after axotomy, 14 days after axotomy
[8] = 14 days postaxotomy, TAT-conjugated peptide, intraocular injection 10 mg/ml at 3 and 8 days

| Substance | RGC survival relative to control [1, 7] | brain infarct volume [2] | neurological deficits (Bederson score) [3] | brain edema (swelling) [4] | increase in RGC survival compared to controls [1, 8] [fold] | RGC density as share of the normal density of 2500 cells/mm^2 ([1]; 14 days postaxotomy, TAT-conjugated peptide, nerve injection 10 mg/ml) [%] | increase in RGC survival compared to controls ([1]; 14 days postaxotomy, TAT-conjugated peptide, single nerve injection 10 mg/ml at time of axotomy) [fold] | RGC survival after ischemic (stroke) injury [5] | cortical neuron survival [6] | RGC survival relative to control ([1]; 14 days postaxotomy, TAT-conjugated peptide, intraperitoneal (IP) injections, 500 μg per injection) | RGC survival relative to control ([1]; 14 days postaxotomy, TAT-conjugated peptide, nerve injection) |
| --- | --- | --- | --- | --- | --- | --- | --- | --- | --- | --- | --- |
| Kv2.1: R9-conjugated Kv2.1 C-terminal peptide HGSTRDQSI (SEQ ID NO:2) (also: R9 conjugated, site not given here; listed as Homo sapiens) | significantly enhanced RGC survival | significantly reduced | significantly reduced neurological deficits | significantly reduced brain edema |  |  |  |  |  |  |  |
| PTEN: R9 (RRRRRRRRR)-conjugated rat PTEN phosphatase C-terminal peptide DQHSQITKV (SEQ ID NO:1) (RRRRRRRRRDQHSQITKV) | significantly enhanced RGC survival | significantly reduced | significantly reduced neurological deficits |  |  |  |  |  |  |  |  |
| TAT-Kv2.1: TAT domain conjugated to Kv2.1 voltage-gated potassium channel C-terminal peptide HGSTRDQSI (SEQ ID NO:2) (also: TAT conjugated, site not given here; listed as Homo sapiens) |  |  |  |  | 3 | ~80 | 5 | significantly enhanced RGC survival | dose-dependent survival-promoting effect |  |  |
| hPTEN: R9-conjugated human PTEN phosphatase C-terminal peptide DQHTQITKV (SEQ ID NO:9) | significantly enhanced RGC survival | significantly reduced | significantly reduced neurological deficits |  |  |  |  |  |  |  |  |
| iNOS: R9-conjugated iNOS C-terminal peptide LEEPKGTRL (SEQ ID NO:8), MCAO tests (also: R9 conjugated, site not given here; listed as Homo sapiens) |  | significantly reduced | significantly reduced neurological deficits | significantly reduced brain edema | 2 |  |  |  |  | little or no effect | little or no effect |
